The values below come from patent US20190358174A1, “ACTIVE AGENTS AGAINST PROTOZOA” (Christian-Albrechts-Universität zu Kiel, priority 2016, published 2019).

SMILES strings stand for the structures. Like-named read-outs stand apart in the source and are kept apart here.

In assay [1] the target is T1, Gly107Ser mutant of FNT (Plasmodium falciparum, UniProt O77389, G107S).
T1 construct: expressed in transfected cells; host or cells: Saccharomyces cerevisiae W303-1A jen1Δ ady2Δ, plasmid pDR196 (PMA promoter)
T1 sequence (O77389 whole entry G107S): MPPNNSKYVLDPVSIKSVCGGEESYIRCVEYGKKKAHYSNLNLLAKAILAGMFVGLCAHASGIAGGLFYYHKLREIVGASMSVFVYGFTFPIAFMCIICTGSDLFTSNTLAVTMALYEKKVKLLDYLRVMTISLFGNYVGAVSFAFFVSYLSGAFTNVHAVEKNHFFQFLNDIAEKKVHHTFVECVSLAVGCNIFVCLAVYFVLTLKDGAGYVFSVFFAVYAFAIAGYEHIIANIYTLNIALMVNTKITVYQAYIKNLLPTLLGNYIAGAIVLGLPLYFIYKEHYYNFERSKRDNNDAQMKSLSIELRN
The assay is described as follows: yeast test system, 14C-L-lactate uptake, FNT Gly107Ser mutant expressed in Saccharomyces cerevisiae. The assay is classed as cell-based. The text has this:
(§1) The FNT of the wild-type plasmodium (available under accession number PF3D7_0316600 in the data bank PlasmoDB) and of the resistant plasmodia (position of the mutation in the open reading frame: guanine 319 to adenine) were expressed in the yeast Saccharomyces cerevisiae W303-1A jen1Δ ady2Δ from plasmid pDR196 (PMA promoter). In the yeast, the endogenous genes for the monocarboxylate transporter Jenlp (sequence accession No. CAA82062 NCBI) and Ady2p (sequence accession No. KZV 12856) were deleted (obtained from M. Casal, Universidade do Minho, Portugal).
(§2) This yeast was grown in SD medium with addition of adenine, histidine, leucine, tryptophan and 2% (wt/v) glucose at 30° C. up to an OD600 of 0.8 to 1.0, harvested by centrifugation and washed once with water and centrifuged down again, and suspended in 50 mM HEPES/TRIS (pH 6.8) and adjusted to an OD600 of 50±10% and stored on ice. For contacting with one of the compounds a compound of one step of a dilution series in DMSO was provided in a reaction vessel and onto this 80 μL of the yeast suspension were pipetted. After an incubation on ice for 15 to 20 min 20 μL 5 mM Na-L-lacate plus 0.04 μCi radioactively labelled L-(1-^14C) lactate was added. The lactate concentration obtained was 1 mM. After an incubation of 30 s the uptake of lacatate was stopped by a rapid dilution by means of adding of 1 ml ice cold water. From the yeast suspension diluted this way the yeast cells were brought onto a filter membrane by vacuum filtration, washed with 7 ml cold water and transferred with the filter membrane into 3 ml scintillation cocktail. After 24 h of incubation at 18° C. in the scintillation cocktail, in which the cells were lysed, the amount of radioactively labelled lactate was measured by means of a scintillation counter. The total amount of lactate which was taken up by the yeast was calculated from the measured amount of radioactively labelled lactate. As a positive control the yeast was treated equally in parallel testing with DMSO without one of the compounds and was regarded as 100% FNT activity, respectively 0% inhibition. In testings with the compound a lower amount of lactate taken up was found in comparison to the parallel positive control. As a negative control yeast was treated in parallel in which the endogenous genes for the monocarboxylate transporters Jenlp and Ady2p were deleted, but the FNT from plasmodium was not expressed. This negative control was regarded as 0% FNT activity, respectively 100% inhibition.
(§3) As a representative for a Formiate-Nitrit-Transporter protein (FNT) from protozoa, the FNT of Plasmodium falciparum as wild-type and as […] mutant was used, which were each expressed in yeast and incubated with dilutions of the compounds to be tested as described in Example 1.

Assay [2] concerns the target T2, FNT wild-type (Plasmodium falciparum, UniProt O77389).
T2 construct: expressed in transfected cells; host or cells: Saccharomyces cerevisiae W303-1A jen1Δ ady2Δ, plasmid pDR196 (PMA promoter)
The assay is described as follows: yeast test system, 14C-L-lactate uptake, FNT wild-type expressed in Saccharomyces cerevisiae. It is filed as cell-based.
From the text: as §1
as §2, with “After an incubation on ice for 15 to 20 min 20 μL 5 mM Na-L-lacate plus 0.04 μCi radioactively labelled L-(1-^14C) lactate was added.” left out
as §3

Assay [3] deals with resistant plasmodia (FNT mutation Gly107Ser). The assay is described as follows: microbe, parasite or virus in culture. The note with it: for IC50: Plasmodium falciparum, read-out: plasmodium culture IC50 against Gly107Ser mutant. It is filed as cell-based, Plasmodium falciparum.
Assay [4] has as its system Plasmodium falciparum. Kind of assay: growth of Plasmodium falciparum culture (parasitaemia by FACS). It is filed as cell-based. As for the experimental part:
The effect of the following compounds on the growth of Plasmodium falciparum was tested using cultivated plasmodia:
The plasmodium culture was maintained in 5% 0+ erythrocytes in RPMI 1640 medium with 0.5% Albumax at 37° C. […] A change of medium was made after 24 h and the compounds were added freshly.

[5] abbreviates: yeast test system, 15 to 20 min preincubation, 1 mM lactate, pH 6.8, read-out: IC50 against FNT wild-type.
Where [6] appears, read: Plasmodium falciparum; read-out: plasmodium culture IC50 against wild-type.
Where [7] appears, read: Plasmodium falciparum; 48 h after addition, parasitaemia by FACS; read-out: inhibitory effect IC50 on the growth of the plasmodium culture.

T2 sequence (O77389 whole entry): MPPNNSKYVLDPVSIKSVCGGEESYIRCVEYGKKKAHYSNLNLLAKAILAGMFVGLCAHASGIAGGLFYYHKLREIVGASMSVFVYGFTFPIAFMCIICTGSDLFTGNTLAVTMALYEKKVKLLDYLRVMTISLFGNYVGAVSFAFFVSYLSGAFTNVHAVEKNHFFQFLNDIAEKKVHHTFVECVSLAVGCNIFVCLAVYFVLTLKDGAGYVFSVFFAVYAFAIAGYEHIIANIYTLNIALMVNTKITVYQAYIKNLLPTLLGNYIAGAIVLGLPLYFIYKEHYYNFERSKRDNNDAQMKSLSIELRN

The term IC50 denotes the concentration needed to halve the response being measured. In assay [1], `Cn1ccc(C(=O)/C=C(\O)C(F)(F)C(F)(F)F)c1` [BH-269] showed an IC50 of 15000 nM.

Regarding `O=C(/C=C(\O)C(F)(F)C(F)(F)F)c1cc2ccccc2o1` [BH-306], the 50% inhibitory concentration (IC50) in assay [1] turned out to be 15000 nM; in assay [2] (setting [5]), 180 nM.

On to `COc1ccc(C(=O)/C=C(\O)C(F)(F)C(F)(F)F)cc1` [BH-296], for which the figures for the half-maximal inhibitory concentration (IC50) in assay [3], in assay [4] (setting [6]) and in assay [2] (setting [5]) were 8900 nM, 3400 nM and 140 nM, respectively. Besides, the “effect against the resistant parasites (in words)” value in assay [3] (pharmaceutically acceptable concentration range) is given as “effective against the resistant parasites”. Further, the “inhibition of the Gly107Ser mutant (in words)” value in assay [1] is given as “inhibit the Gly107Ser mutant significantly”.

Regarding `CC(C)Oc1ccc(C(=O)/C=C(\O)C(F)(F)C(F)(F)F)c(O)c1` [BH-340], the “inhibition of the plasmodium culture (in words)” value in assay [4] was “effective inhibition”. In addition, the results for the half-maximal inhibitory concentration (IC50) in assay [4] (setting [6]) and in assay [2] (setting [5]) were 100 nM and 400 nM, respectively. Besides, in assay [2], the “inhibition of the FNT in the yeast test system (in words)” value (from here on “inhibition of the FNT”) is reported as “effective inhibition”.

Regarding `O=C1CC(O)(C(F)(F)C(F)(F)F)Oc2ccccc21` (stereo not shown) [MMV000972, reference compound], the half-inhibitory concentration (IC50) in assay [4] (setting [7]) is 1700 nM.

With `CC(=O)C=C(O)C(F)(F)C(F)(F)F` [BH-204], the IC50 in assay [1] (yeast test system, 15 to 20 min preincubation, 1 mM lactate, pH 6.8, read-out: IC50 against Gly107Ser mutant of FNT) came to 8100 nM; in assay [2] (setting [5]) it was 1900 nM.

With `O=C(/C=C(\O)C(F)(F)C(F)(F)F)c1ccc(Cl)cc1O` [BH-317], the “inhibition of the plasmodium culture (in words)” value in assay [4] is “effective inhibition”. Moreover, the concentration for half-maximal inhibition (IC50) stood at 370 nM in assay [4] (setting [6]) and 120 nM in assay [2] (setting [5]). Besides, in assay [2], the “inhibition of the FNT” value was “effective inhibition”.

In the case of `CC(C)(O)CC(=O)/C=C(\O)C(F)(F)C(F)(F)F` [BH-262], the half-maximal inhibitory concentration (IC50) is 70000 nM in assay [3] and 10000 nM in assay [4] (setting [6]).

Consider `O=C(/C=C(\O)C(F)(F)C(F)(F)F)c1ccc(Cl)cc1` [BH-301], for which the concentration for half-maximal inhibition (IC50) in assay [1] stood at 5800 nM; in assay [2], 120 nM. Moreover, the “inhibition of the Gly107Ser mutant (in words)” value in assay [1] was “inhibit the Gly107Ser mutant significantly”.

As for `COc1ccc(C(=O)/C=C(\O)C(F)(F)C(F)(F)C(F)(F)F)c(O)c1` [BH-362], the IC50 in assay [4] (Plasmodium falciparum, read-out: plasmodium culture IC50 against wild-type) is 570 nM; in assay [2] (setting [5]), 250 nM.

On to `CCOc1ccc(C(=O)/C=C(\O)C(F)(F)C(F)(F)F)c(O)c1` [BH-326], for which, in assay [4], the “inhibition of the plasmodium culture (in words)” value is on record as “effective inhibition”. In addition, the IC50 came to 50 nM in assay [4] (setting [6]) and 240 nM in assay [2] (setting [5]). The “inhibition of the FNT” value in assay [2] was “effective inhibition”.

Regarding `O=C(/C=C(\O)C(F)(F)C(F)(F)F)c1ccc(OCc2ccccc2)cc1O` [BH-388], the IC50 in assay [2] (setting [5]) came to 890 nM.

As to `O=C(/C=C(\O)C(F)(F)C(F)(F)F)/C=C/c1ccccc1` [BH-292], the IC50 was 25000 nM in assay [1] and 260 nM in assay [2] (setting [5]).

Take `COc1ccc2c(c1)OC(O)(C(F)(F)C(F)(F)F)CC2=O` (stereo not shown) [MMV007839, reference compound]: the half-maximal inhibitory concentration (IC50) was found to be 140 nM in assay [4] (setting [7]); 170 nM in assay [2] (preincubation 20 min, read-out: IC50 of lactate transport); 15 nM in assay [2] (preincubation 24 h prior to addition of lactate, read-out: IC50 of lactate transport). For the same molecule, in assay [2] (washing with 50 mM HEPES-Tris, pH 6.8), the “reversibility of FNT inhibition by washing of the cells” value was “could not be reduced by washing”.

For the molecule `COc1ccc(CCC(=O)/C=C(\O)C(F)(F)C(F)(F)F)cc1` [BH-324.2], in assay [1], the midpoint of inhibition, the IC50, lay at 6300 nM and the “inhibition of the Gly107Ser mutant (in words)” value is “inhibit the Gly107Ser mutant significantly”. Moreover, 160 nM corresponded to half-maximal inhibition in assay [2] (IC50).
